{
  "source": "patent EP4552639A1",
  "about": "“COMPOUNDS FOR USE IN THE TREATMENT OF GASTROINTESTINAL STROMAL TUMOR (GIST)” (priority 2023, dated 2025)",
  "tested_on": "KIT/PDGFRA-mutated cell lines",
  "test": "Cell viability assay (GR50)",
  "type": "cell-based",
  "conditions": "Figure 2",
  "method": "Cell viability assays were performed as previously described (Grunewald, S., et al., Resistance to avapritinib in PDGFRA-driven GIST is caused by secondary mutations in the PDGFRA kinase domain. Cancer Discov, 2020). To generate the results presented in Figures 2 and 3, cells were plated at 4000-16000 cells/well in a 96-well plate and cultured overnight. Cells were then incubated in triplicates with media containing inhibitors or solvent control (DMSO) for 72 hours. The sulforhodamine B (SRB) assay was used according to the method of Skehan and colleagues (Skehan, P., et al., New colorimetric cytotoxicity assay for anticancer-drug screening. J.Natl.Cancer Inst., 1990. 82(13): p. 1107-1112).\nTo generate the results in for the KIT-driven cell lines (GIST-T1; T1-D816E, and T1-V654A) in Figures 1, 6, 7, and 8, cells were plated in triplicates at 400 cells/well in a 384-well plate with media containing inhibitors or solvent control (DMSO) and incubated for 72 hours. The Cell Titer Glo assay (Promega) was applied according to manufacturer's instructions. Absorption or luminescence was measured with a SPARK™ Plate reader (Tecan, Switzerland). One measurement of untreated cells at the at the start of treatment served as baseline for growth reduction (GR) calculations. […]",
  "data": [
    {"smiles": "NC(=O)Nc1cc(-c2cccc(F)c2)sc1C(=O)N[C@H]1CCCNC1", "note": "[Preparation Example 3a.1, (S)-5-(3-fluorophenyl)-N-(piperidin-3-yl)-3-ureidothiophene-2-carboxamide]", "values": [
      {"measurement": "cellular GR50 (concentration of a drug that reduces cell growth rate by half)", "value": "1 to 30", "unit": "nM"}
    ]}
  ]
}
